# From publication PMC10382584, “Macrocyclization of linear molecules by deep learning to facilitate macrocyclic drug candidates discovery” (Nature Communications, 2023)
# “And” between values parts separate entries of the source, which are not always exact repeats. Identical values can stand only once. Like-named read-outs stand apart in the source and are kept apart here.
# Experiments:
# [1] = Chemical stability in DMSO stock solution (HPLC purity); assay type: physicochemical; conditions: mean±SD
# Excerpt: compounds were formulated in the solubilizing vehicle (5% DMSO/30% PEG400/65% […]
# safety to the mice in the test.
# 6. What was the sample dissolved in for the in vitro and in vivo experiments? Response: The solvent information for the in vitro and in vivo experiments has been added in the revised manuscript. […]
# 7. Was the stability of the different compounds assessed and compared to Fedratinib? This is generally a critical point in macrocyclic studies. […]
# in DMSO stock solution. Test compounds were incubated at room temperature and 60 ℃, respectively, for 72 h, and their purities (%) were determined using HPLC equipped with a CORTECS C18 column (4.6*50 mm, 2.7 μm particle size) and a UV/VIS detector setting of λ=210 nm. All co mpounds were eluted with the two solvent systems ([…] as organic phase in Method I and CH3OH as organic phase in Method II) at a flow rate of 0.3 ml/min. Each experiment repeated for three times and the results are represented as mean±SD.
# Ta b e l R 1 . Comparison of chemical stability of different compounds at room temperature and 60 ℃, respectively.
# JAK2 = target: T1, JAK2 (Homo sapiens, UniProt O60674); experiment: JAK2 enzyme assay (Z'-LYTE kinase assay kit); assay type: biochemical
# T1 construct: 0.05–0.42 ng JAK2, 2 μM peptide substrate (Tyr06)
# T1 sequence (O60674 whole entry): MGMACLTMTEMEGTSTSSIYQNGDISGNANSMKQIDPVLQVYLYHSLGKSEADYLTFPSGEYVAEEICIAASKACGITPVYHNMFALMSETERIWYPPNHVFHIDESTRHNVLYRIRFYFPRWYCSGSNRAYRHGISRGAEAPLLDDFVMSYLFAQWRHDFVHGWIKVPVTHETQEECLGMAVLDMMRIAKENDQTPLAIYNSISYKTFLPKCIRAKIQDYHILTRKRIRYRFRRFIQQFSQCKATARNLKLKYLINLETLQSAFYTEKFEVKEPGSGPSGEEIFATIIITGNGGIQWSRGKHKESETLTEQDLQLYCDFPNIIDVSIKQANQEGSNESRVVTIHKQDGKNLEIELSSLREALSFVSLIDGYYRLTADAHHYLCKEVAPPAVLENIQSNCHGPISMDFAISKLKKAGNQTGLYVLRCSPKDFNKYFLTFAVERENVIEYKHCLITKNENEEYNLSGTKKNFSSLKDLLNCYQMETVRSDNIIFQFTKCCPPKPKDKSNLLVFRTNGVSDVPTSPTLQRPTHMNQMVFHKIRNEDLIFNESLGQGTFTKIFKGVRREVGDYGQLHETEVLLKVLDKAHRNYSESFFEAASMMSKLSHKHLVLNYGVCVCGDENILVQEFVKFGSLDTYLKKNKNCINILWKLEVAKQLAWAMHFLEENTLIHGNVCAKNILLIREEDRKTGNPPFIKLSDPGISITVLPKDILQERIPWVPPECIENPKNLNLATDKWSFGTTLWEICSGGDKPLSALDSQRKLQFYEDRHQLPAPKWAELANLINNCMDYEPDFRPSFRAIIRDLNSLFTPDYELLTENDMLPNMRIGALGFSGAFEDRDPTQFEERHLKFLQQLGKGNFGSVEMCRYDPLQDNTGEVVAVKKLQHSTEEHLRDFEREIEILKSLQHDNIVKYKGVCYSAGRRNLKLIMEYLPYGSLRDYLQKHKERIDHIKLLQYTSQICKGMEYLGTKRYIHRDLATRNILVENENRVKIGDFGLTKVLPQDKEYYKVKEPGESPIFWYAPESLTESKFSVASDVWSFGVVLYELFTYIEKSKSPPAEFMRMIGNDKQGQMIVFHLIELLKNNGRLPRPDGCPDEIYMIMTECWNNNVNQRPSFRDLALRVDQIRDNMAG
# Method: JAK kinase activity assays were performed using Z’-LYTETM kinase assay kit (Life Technologies, pv4122). […] The mixture was added into the 384-well microplate, shaken gently, and then incubated at room temperature for 1 h. Subsequently, 5 μL development solution was added to the well for incubating another 1 h. Finally, 5 μL stop reagent was added to stop the reaction. […] IC50 values were calculated using GraphPad Prism v8.0.3, and three parallel experiments were performed.
# HEL cells = experiment: Cell proliferation assay (CCK-8), HEL cells; assay type: cell-based, human; conditions: for Inhibition (%): single wells, replicates 1 and 2
# Method: (§1) The human erythroid leukemia (HEL 92.1.7) cells were purchased from the American Type Culture Collection (ATCC, TIB-180), and the human megakaryoblastic (SET2) cells were obtained from German Collection of Microorganisms and Cell Cultures (DSMZ, ACC 608). The anti-proliferative activities of compounds were evaluated using WST-8 cell counting kit-8 (Elabscience). HEL and SET-2 cells were seeded at 5000 cells/well in 70 μL RPMI-1640 medium (Hyclon) with 10% FBS (Gibco) to the 96-well plate and incubated overnight at 37 °C with 5% CO2. The compounds were serially diluted in RPMI-1640 medium, and cells were treated separately with 30 μL various concentrations of compounds for 72 h. The final DMSO concentration in the culture wells was 0.1%, which had no effect on the cell viability. Finally, 10 μL of CCK-8 solution was added into the wells. 4 h later, the absorbance values at 450 nm were recorded. IC50 values were determined using GraphPad Prism v8.3.0, and three parallel experiments were performed.
# SET-2 cells = experiment: Cell proliferation assay (CCK-8), SET-2 cells; assay type: cell-based, human; conditions: for Inhibition (%): single wells, replicates 1 and 2
# Method: as §1
# DSS-induced colitis mice = experiment: In vivo efficacy study, DSS-induced colitis model; set-up: species or system male BALB/c mice; conditions: SASP 500 mg/kg; for Body weight (Fig. 6a) / DAI score (Fig. 6b): individual mice
# Method: Model mice were divided into four groups and eight mice were included in each group on day 8. […] Meanwhile, solvent was given intragastrically to the control group and model group. On day 15, the mice were sacrificed, and the length and weight of each colon were measured.
# Body weight, the stool consistency, and the presence of blood in feces were recorded daily in the morning. […] The maximum score was 9, which was the sum of the scores. About 1-cm colon tissue, which is 0.5 cm away from the anal margin, was collected, and the ileocecal area was used for histopathological examination. After H&E staining, the tissues were scored under single-blind conditions to evaluate the levels of inflammation and tissue damage in the colons following the criteria proposed by ref. [62]. Statistical analyses were performed using SPSS v24.0.
smiles,measurement,setting,value
Cc1cnc2nc1Nc1cccc(c1)C(=O)N(C)Cc1cc(ccc1OCCN1CCCC1)N2 [Compound 2],purity after incubation in DMSO stock solution,"[1]; 60 ℃, 0 h",99.59±0.13%
same,purity after incubation in DMSO stock solution,"[1]; 60 ℃, 2 h",99.60±0.06%
same,purity after incubation in DMSO stock solution,"[1]; 60 ℃, 24 h",100.00±0.00%
same,purity after incubation in DMSO stock solution,"[1]; 60 ℃, 48 h",99.61±0.01%
same,purity after incubation in DMSO stock solution,"[1]; 60 ℃, 72 h",99.43±0.09%
same,purity after incubation in DMSO stock solution,"[1]; Room Temperature, 0 h",99.65±0.05%
same,purity after incubation in DMSO stock solution,"[1]; Room Temperature, 2 h",99.65±0.05%
same,purity after incubation in DMSO stock solution,"[1]; Room Temperature, 24 h",100.00±0.00%
same,purity after incubation in DMSO stock solution,"[1]; Room Temperature, 48 h",99.99±0.01%
same,purity after incubation in DMSO stock solution,"[1]; Room Temperature, 72 h",99.50±0.06%
same,IC50,"JAK2; JAK2, 25 μM ATP, mean ± SD, n = 3, read-out: Enzyme Inhibitory Activity (IC50)",0.364 µM
same,IC50,"JAK2; JAK2 enzyme, mean of 3 replicates, read-out: IC50/μM mean, enzyme inhibitory activity",0.364 µM
same,IC50,"JAK2; JAK2 enzyme, mean ± SD of 3 replicates, read-out: IC50/μM mean ± SD, enzyme inhibitory activity",0.364 ± 0.007 µM
same,IC50,"JAK2; JAK2 enzyme, single-replicate fits (replicates 1-3), read-out: IC50/μM (individual replicates), enzyme inhibitory activity",0.366 µM and 0.356 µM and 0.37 µM
same,Inhibition (%),"HEL cells; HEL cell lines, 0.0977 μM",2.051% and -1.891% and 1.838% and 11.186% and -5.882% and -1.006%
same,Inhibition (%),"HEL cells; HEL cell lines, 0.1953 μM",0.772% and 1.838% and 2.477% and 15.575% and -7.833% and -8.321%
same,Inhibition (%),"HEL cells; HEL cell lines, 0.3906 μM",2.264% and 1.518% and 1.625% and 18.866% and -1.250% and -7.345%
same,Inhibition (%),"HEL cells; HEL cell lines, 0.7813 μM",10.786% and 8.762% and 8.549% and 18.744% and 6.553% and -6.614%
same,Inhibition (%),"HEL cells; HEL cell lines, 1.5625 μM",18.882% and 12.064% and 2.264% and 20.207% and 10.332% and -0.152%
same,Inhibition (%),"HEL cells; HEL cell lines, 3.1250 μM, 3.125 µM",25.273% and 19.521% and 12.916% and 41.664% and 20.207% and 14.721%
same,Inhibition (%),"HEL cells; HEL cell lines, 6.2500 μM, 6.25 µM",42.104% and 34.754% and 32.197% and 45.931% and 34.837% and 31.058%
same,Inhibition (%),"HEL cells; HEL cell lines, 12.5000 μM, 12.5 µM",71.398% and 70.120% and 69.694% and 81.042% and 74.825% and 72.874%
same,IC50,"HEL cells; HEL cell lines, mean of 2 replicates, read-out: IC50/μM mean, cellular antiproliferative activity",7.34 µM
same,IC50,"HEL cells; HEL cell lines, mean ± sd of 2 replicates, read-out: IC50/μM mean ± sd, cellular antiproliferative activity",7.34 ± 0.44 µM
same,IC50,"HEL cells; HEL cell lines, single-replicate fits, read-out: IC50/μM (individual replicates), cellular antiproliferative activity",7.03 µM and 7.65 µM
same,IC50,"HEL cells; HEL cells, 72 h, mean ± SD, read-out: Cellular Antiproliferative Activity (IC50) HEL",7.34 ± 0.44 µM
same,Inhibition (%),"SET-2 cells; SET-2 cell lines, 0.0977 μM",7.592% and 1.623% and 1.518% and -0.378% and 0.918% and 6.534%
same,Inhibition (%),"SET-2 cells; SET-2 cell lines, 0.1953 μM",8.325% and -1.100% and -4.241% and -2.322% and 3.294% and 8.909%
same,Inhibition (%),"SET-2 cells; SET-2 cell lines, 0.3906 μM",0.681% and -1.309% and -10.209% and -2.322% and 6.965% and 5.562%
same,Inhibition (%),"SET-2 cells; SET-2 cell lines, 0.7813 μM",-8.429% and 1.100% and -6.440% and -0.270% and 5.886% and 6.102%
same,Inhibition (%),"SET-2 cells; SET-2 cell lines, 1.5625 μM",-4.869% and -5.916% and -2.880% and 1.998% and 4.914% and -0.162%
same,Inhibition (%),"SET-2 cells; SET-2 cell lines, 3.1250 μM, 3.125 µM",4.031% and -0.576% and -2.984% and 1.674% and 9.233% and -1.350%
same,Inhibition (%),"SET-2 cells; SET-2 cell lines, 6.2500 μM, 6.25 µM",8.744% and 16.702% and 4.555% and 8.801% and 8.153% and 7.613%
same,Inhibition (%),"SET-2 cells; SET-2 cell lines, 12.5000 μM, 12.5 µM",20.471% and 17.330% and 11.885% and 18.953% and 16.793% and 14.741%
same,IC50,"SET-2 cells; SET-2 cell lines, single-replicate fits, read-out: IC50/μM (individual replicates), cellular antiproliferative activity",> 25 µM
same,IC50,"SET-2 cells; SET-2 cells, 72 h, mean ± SD, read-out: Cellular Antiproliferative Activity (IC50) SET-2",> 25 µM
O=C(O)c1cc(/N=N/c2ccc(S(=O)(=O)Nc3ccccn3)cc2)ccc1O [Salicylazosulfapyridine],Body weight (Fig. 6a),DSS-induced colitis mice; day 0,22.7 and 23.7 and 19.3 and 23.6 and 21.6 and 22.9 and 21.7 (2×)
same,DAI score (Fig. 6b),DSS-induced colitis mice; day 0,0
same,DAI score (Fig. 6b),DSS-induced colitis mice; day 1,0 (7×) and 1
same,Body weight (Fig. 6a),"DSS-induced colitis mice; day 1, in g (unit assumed)",23.2 and 23.6 and 22.1 and 24.5 and 21.4 and 22.4 and 22 and 22.5
same,DAI score (Fig. 6b),DSS-induced colitis mice; day 2,0 (7×) and 1
same,Body weight (Fig. 6a),"DSS-induced colitis mice; day 2, in g (unit assumed)",23.3
same,DAI score (Fig. 6b),DSS-induced colitis mice; day 3,1 (6×) and 0 (2×)
same,DAI score (Fig. 6b),DSS-induced colitis mice; day 4,4 and 2 and 1 (4×) and 3 and 0
same,Body weight (Fig. 6a),"DSS-induced colitis mice; day 4, in g (unit assumed)",22.3 and 22.4 and 22.1 and 23.7 and 20.4 and 22.9 and 21.3 and 22.8
same,DAI score (Fig. 6b),DSS-induced colitis mice; day 5,4 and 2 (4×) and 1 (2×) and 6
same,Body weight (Fig. 6a),"DSS-induced colitis mice; day 5, in g (unit assumed)",20.8 and 20.9 and 21.8 and 22.6 and 19.7 and 21.4 and 20.2 and 21.2
same,DAI score (Fig. 6b),DSS-induced colitis mice; day 6,5 (4×) and 7 and 3 and 1 (2×)
same,Body weight (Fig. 6a),"DSS-induced colitis mice; day 6, in g (unit assumed)",19 and 19.1 and 21.1 and 21.3 and 18.6 and 19.3 and 19.2 and 20.2
same,DAI score (Fig. 6b),DSS-induced colitis mice; day 7,8 and 6 and 1 and 4 and 5 (2×) and 3 and 2
same,Body weight (Fig. 6a),"DSS-induced colitis mice; day 7, in g (unit assumed)",16.8 and 17.9 and 20.5 and 20.7 and 18.1 and 17.6 and 17 and 18.6
same,DAI score (Fig. 6b),DSS-induced colitis mice; day 8,2 (2×) and 5 and 1 (3×) and 0 (2×)
same,Body weight (Fig. 6a),"DSS-induced colitis mice; day 8, in g (unit assumed)",16.9 and 16.6 and 19.6 and 19.9 and 16.5 and 17.3 and 18.4 and 19.2
same,Body weight (Fig. 6a),DSS-induced colitis mice; day 9,18 (2×) and 17.2 and 19.6 and 20.6 and 15.7 and 19.4 and 20.8
same,DAI score (Fig. 6b),DSS-induced colitis mice; day 9,0 (7×) and 1
same,DAI score (Fig. 6b),DSS-induced colitis mice; day 10,2 (4×) and 1 (2×) and 3 and 0
same,Body weight (Fig. 6a),"DSS-induced colitis mice; day 10, in g (unit assumed)",17.1 and 16.7 and 19.2 and 21.8 and 17.6 and 20.2 and 22.1
same,DAI score (Fig. 6b),DSS-induced colitis mice; day 11,0 (5×) and 1 (2×)
same,Body weight (Fig. 6a),"DSS-induced colitis mice; day 11, in g (unit assumed)",17.6 and 16.3 and 19.7 and 21.9 and 19.1 and 19.8 and 22.6
same,DAI score (Fig. 6b),DSS-induced colitis mice; day 12,0
same,Body weight (Fig. 6a),"DSS-induced colitis mice; day 12, in g (unit assumed)",19 and 17.1 and 20.3 and 22.2 and 19.5 and 21.5 and 22.4
same,Body weight (Fig. 6a),"DSS-induced colitis mice; day 13, in g (unit assumed)",18.8 and 17.7 and 20 and 23.6 and 20.2 and 21.5 and 22.6
same,Body weight (Fig. 6a),"DSS-induced colitis mice; day 14, in g (unit assumed)",19.5 and 18.6 and 19.8 and 24.4 and 21 and 22.1 and 22.5
same,HE staining score (Fig. 6d),DSS-induced colitis mice; individual colon tissues (n = 8),3 and 1 and 2
